Results reported in publication PMC8048867 (Chemmedchem, 2020).
Several values for one entry are separate records, joined by “and”; a condition that tells them apart may be missing. Identical values can stand only once.

Key:
[1] = molecular target: T1, MMP2 (Homo sapiens, UniProt P08253); assay: off-target proteinase inhibition MMP2; format: biochemical; settings: read-out: Relative enzyme activity MMP2
T1 sequence (P08253 110-660): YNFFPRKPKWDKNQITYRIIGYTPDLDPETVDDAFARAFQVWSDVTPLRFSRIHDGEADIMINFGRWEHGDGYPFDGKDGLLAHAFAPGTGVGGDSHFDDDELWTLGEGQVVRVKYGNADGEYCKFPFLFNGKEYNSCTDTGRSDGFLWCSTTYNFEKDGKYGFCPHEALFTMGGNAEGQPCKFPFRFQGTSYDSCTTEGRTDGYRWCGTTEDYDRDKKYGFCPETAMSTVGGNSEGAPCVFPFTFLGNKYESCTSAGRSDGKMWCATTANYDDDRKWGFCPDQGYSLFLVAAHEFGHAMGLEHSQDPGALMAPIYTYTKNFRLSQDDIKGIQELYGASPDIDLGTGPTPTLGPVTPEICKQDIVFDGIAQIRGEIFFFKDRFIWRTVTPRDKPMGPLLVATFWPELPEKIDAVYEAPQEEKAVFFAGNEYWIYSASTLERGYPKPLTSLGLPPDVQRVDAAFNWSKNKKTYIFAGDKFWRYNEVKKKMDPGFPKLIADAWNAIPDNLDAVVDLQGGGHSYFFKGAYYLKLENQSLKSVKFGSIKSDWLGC

[2] = molecular target: MMP9 (Homo sapiens, UniProt P14780); assay: off-target proteinase inhibition MMP9; format: biochemical; settings: read-out: Relative enzyme activity MMP9
Sequence of MMP9 (P14780 107-707 limits assumed): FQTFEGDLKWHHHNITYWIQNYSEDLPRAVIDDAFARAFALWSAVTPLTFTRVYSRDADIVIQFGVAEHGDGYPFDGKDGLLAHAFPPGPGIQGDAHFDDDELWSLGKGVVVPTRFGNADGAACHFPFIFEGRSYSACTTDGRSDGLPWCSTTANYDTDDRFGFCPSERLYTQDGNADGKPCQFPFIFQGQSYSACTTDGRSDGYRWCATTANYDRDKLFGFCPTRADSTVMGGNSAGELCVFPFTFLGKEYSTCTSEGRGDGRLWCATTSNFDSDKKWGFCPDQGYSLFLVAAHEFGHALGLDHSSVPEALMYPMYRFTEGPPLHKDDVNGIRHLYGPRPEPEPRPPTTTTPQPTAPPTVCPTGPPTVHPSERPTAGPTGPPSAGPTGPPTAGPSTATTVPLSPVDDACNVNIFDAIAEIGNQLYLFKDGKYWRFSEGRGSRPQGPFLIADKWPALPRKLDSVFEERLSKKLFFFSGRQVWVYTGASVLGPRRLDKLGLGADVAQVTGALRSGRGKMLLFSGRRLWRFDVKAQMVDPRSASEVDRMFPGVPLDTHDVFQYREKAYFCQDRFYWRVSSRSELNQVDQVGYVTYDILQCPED

[3] = molecular target: T2, recombinant human meprin β (Homo sapiens, UniProt Q16820); assay: meprin β inhibition, quenched fluorogenic peptide substrate assay; format: biochemical
T2 sequence (Q16820 62-701): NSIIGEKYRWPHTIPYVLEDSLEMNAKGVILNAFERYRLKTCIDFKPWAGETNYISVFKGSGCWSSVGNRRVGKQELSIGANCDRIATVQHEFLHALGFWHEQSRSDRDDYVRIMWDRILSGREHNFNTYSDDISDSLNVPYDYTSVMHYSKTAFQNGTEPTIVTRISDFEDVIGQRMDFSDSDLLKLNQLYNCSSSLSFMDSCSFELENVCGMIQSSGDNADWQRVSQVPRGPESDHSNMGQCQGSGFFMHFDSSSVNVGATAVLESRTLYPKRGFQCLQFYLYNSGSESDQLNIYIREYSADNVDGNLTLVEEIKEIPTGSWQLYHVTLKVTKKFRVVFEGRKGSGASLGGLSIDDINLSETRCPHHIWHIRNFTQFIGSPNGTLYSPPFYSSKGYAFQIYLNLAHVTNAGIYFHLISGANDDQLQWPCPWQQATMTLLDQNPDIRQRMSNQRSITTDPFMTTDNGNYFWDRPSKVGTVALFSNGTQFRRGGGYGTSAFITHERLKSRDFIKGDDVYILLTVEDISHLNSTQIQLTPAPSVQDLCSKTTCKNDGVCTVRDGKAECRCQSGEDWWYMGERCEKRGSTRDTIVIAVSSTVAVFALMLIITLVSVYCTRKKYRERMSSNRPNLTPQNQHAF

[4] = molecular target: T3, recombinant human meprin α (Homo sapiens, UniProt Q16819); assay: meprin α inhibition, quenched fluorogenic peptide substrate assay; format: biochemical; settings: for SF: selectivity factor (K i app meprin β/K i app meprin α): meprin α over meprin β
T3 sequence (Q16819 66-746): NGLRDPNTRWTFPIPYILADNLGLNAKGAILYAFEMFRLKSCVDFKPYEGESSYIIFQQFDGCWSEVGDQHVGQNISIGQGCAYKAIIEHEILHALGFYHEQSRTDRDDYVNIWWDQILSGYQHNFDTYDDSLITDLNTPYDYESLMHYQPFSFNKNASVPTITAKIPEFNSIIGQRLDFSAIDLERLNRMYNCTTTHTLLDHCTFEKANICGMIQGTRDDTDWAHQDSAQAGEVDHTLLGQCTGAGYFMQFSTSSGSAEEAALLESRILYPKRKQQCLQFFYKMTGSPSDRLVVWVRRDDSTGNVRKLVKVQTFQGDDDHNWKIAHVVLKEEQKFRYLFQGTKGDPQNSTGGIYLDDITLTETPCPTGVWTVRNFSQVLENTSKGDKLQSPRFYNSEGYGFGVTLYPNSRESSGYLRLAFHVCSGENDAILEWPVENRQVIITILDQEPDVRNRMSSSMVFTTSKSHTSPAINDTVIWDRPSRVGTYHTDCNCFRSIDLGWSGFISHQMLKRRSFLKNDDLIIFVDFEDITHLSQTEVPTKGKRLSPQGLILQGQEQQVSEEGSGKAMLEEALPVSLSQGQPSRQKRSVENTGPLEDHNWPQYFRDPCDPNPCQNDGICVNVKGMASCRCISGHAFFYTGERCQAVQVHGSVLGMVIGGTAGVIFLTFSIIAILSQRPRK

[5] = cell-viability assay; format: cell-based; settings: human, SH-SY5Y cells
[6] = cell-viability assay; format: cell-based; settings: human, Hep-G2 cells
[7] = molecular target: T4, ADAM10 (Homo sapiens, UniProt O14672); assay: off-target proteinase inhibition ADAM10; format: biochemical; settings: read-out: Relative enzyme activity ADAM10
T4 sequence (O14672 214-748): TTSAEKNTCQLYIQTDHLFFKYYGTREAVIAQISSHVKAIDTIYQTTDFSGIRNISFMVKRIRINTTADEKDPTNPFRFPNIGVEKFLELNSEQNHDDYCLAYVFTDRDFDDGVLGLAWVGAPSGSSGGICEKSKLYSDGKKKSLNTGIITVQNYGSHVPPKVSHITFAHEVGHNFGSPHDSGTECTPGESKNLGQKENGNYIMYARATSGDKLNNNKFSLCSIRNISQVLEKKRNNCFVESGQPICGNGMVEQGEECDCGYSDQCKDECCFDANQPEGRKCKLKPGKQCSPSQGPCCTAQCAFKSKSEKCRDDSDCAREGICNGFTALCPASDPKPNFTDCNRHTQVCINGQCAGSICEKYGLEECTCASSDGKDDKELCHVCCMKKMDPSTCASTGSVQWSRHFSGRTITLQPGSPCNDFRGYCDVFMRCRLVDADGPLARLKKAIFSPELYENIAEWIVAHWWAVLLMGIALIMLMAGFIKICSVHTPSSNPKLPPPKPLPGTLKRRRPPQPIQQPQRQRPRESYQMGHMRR

[8] = molecular target: MMP13 (Homo sapiens, UniProt P45452); assay: off-target proteinase inhibition MMP13; format: biochemical; settings: read-out: Relative enzyme activity MMP13
[9] = molecular target: ADAM17 (Homo sapiens, UniProt P78536); assay: off-target proteinase inhibition ADAM17; format: biochemical; settings: read-out: Relative enzyme activity ADAM17
Sequence of ADAM17 (P78536 215-824): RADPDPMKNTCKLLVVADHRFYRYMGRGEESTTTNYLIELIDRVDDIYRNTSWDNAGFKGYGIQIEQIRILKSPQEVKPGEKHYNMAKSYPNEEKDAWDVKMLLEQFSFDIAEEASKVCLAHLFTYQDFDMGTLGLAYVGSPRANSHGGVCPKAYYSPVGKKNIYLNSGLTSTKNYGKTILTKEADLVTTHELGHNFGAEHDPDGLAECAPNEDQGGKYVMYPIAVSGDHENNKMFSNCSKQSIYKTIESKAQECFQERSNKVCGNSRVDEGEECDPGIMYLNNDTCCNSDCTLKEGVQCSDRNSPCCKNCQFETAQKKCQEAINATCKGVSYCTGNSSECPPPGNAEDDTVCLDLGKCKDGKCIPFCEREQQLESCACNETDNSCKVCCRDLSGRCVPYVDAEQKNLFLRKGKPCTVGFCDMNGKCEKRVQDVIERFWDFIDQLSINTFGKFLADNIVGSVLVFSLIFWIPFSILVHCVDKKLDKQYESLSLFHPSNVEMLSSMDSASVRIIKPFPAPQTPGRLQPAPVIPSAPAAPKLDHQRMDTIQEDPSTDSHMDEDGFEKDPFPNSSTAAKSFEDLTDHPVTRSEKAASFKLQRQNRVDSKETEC

[10] = molecular target: T5, mouse ovastacin (Mus musculus, UniProt Q6HA09); assay: ovastacin inhibition, fluorogenic enzyme activity assay
T5 sequence (Q6HA09 86-435 limits assumed): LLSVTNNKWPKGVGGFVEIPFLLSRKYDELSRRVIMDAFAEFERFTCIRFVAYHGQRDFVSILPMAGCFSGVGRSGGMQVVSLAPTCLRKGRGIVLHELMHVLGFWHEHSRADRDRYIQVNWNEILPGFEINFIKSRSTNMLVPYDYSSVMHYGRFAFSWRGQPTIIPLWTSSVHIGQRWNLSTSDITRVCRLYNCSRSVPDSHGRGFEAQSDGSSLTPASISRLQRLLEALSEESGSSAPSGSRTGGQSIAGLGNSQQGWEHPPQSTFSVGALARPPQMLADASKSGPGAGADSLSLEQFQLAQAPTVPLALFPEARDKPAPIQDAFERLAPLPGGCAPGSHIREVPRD

`O=C(CCc1c(-c2ccccc2)noc1-c1ccccc1)NO` [2 d, 3‐(3,5‐Diphenylisoxazol‐4‐yl)propanehydroxamic acid] showed a remaining activity at 10 µM [1] of 98%, a remaining activity at 200 µM [1] of 74% and a remaining activity at 10 µM [2] of 89%. The remaining activity at 200 µM [2] was 39%, the Ki [3] was 13.5 µM and the Ki [4] was 0.031 µM. The “SF: selectivity factor (K i app meprin β/K i app meprin α)” value (shortened to “SF: selectivity factor”) [4] was 435, the viability at 24 h, 30 µM [5] was 123% and the viability at 24 h, 30 µM [6] was 90%. It also gave a remaining activity at 10 µM [7] of 75%, a remaining activity at 200 µM [7] of 21% and a remaining activity at 10 µM [8] of 79%. The remaining activity at 200 µM [8] was 66%, the remaining activity at 10 µM [9] was 75% and the remaining activity at 200 µM [9] was 24%.

In the case of `O=C(Cc1c(-c2ccccc2)n[nH]c1-c1ccccc1)NO` [2 e, 2‐(3,5‐Diphenyl‐1H‐pyrazol‐4‐yl)ethanehydroxamic acid], the Ki [10] is reported as 0.196 µM, the “SF Meprin α: selectivity factor (K i app ovastacin/K i app meprin α)” value (“SF Meprin α: selectivity factor” for short) [10] is reported as 65 and the “SF Meprin β: selectivity factor (K i app ovastacin/K i app meprin β)” value (from here on “SF Meprin β: selectivity factor”) [10] is reported as 1. For the same compound, the remaining activity at 10 µM [1] was 104%, the remaining activity at 200 µM [1] was 61% and the remaining activity at 10 µM [2] was 81%. It also gave a remaining activity at 200 µM [2] of 27%, a Ki [3] of 0.199 µM and a Ki [4] of 0.003 µM. The “SF: selectivity factor” value [4] was 66, the remaining activity at 10 µM [7] was 73% and the remaining activity at 200 µM [7] was 23%. The remaining activity at 10 µM [8] was 75%, the remaining activity at 200 µM [8] was 67% and the remaining activity at 10 µM [9] was 61%. The remaining activity at 200 µM [9] was 7%.

For `O=C(Cc1c(-c2ccccc2)noc1-c1ccccc1)NO` [2 c, 2‐(3,5‐Diphenylisoxazol‐4‐yl)ethanehydroxamic acid], the Ki [10] was 0.066 µM, the “SF Meprin α: selectivity factor” value [10] was 17 and the “SF Meprin β: selectivity factor” value [10] was 0.1. The remaining activity at 10 µM [1] was 87%, the remaining activity at 200 µM [1] was 34% and the remaining activity at 10 µM [2] was 86%. For the same compound, the remaining activity at 200 µM [2] was 16%, the Ki [3] was 0.813 µM and the “fold increase in activity against meprin β compared to 2 a” value ([3]; compared to pyrrole 2 a) was 5 fold. For the same compound, the “fold improvement in potency against meprin α compared to amine 1 d” value ([4]; compared to 1 d) was 2000 fold, the “fold increase in activity against meprin α compared to 2 a” value ([4]; compared to pyrrole 2 a) was 5 fold and the “SF: selectivity factor” value [4] was 200 and 203. For the same compound, the viability at 24 h, 30 µM [5] was 96%, the viability at 24 h, 30 µM [6] was 85% and the remaining activity at 10 µM [7] was 80%. It also gave a remaining activity at 200 µM [7] of 22%, a remaining activity at 10 µM [8] of 80% and a remaining activity at 200 µM [8] of 31%. For the same compound, the remaining activity at 10 µM [9] was 62% and the remaining activity at 200 µM [9] was 9%.

For `O=C(Cn1c(-c2ccccc2)nc2ccccc21)NO` [4 c, 2‐(2‐Phenylbenzimidazol‐1‐yl)ethanehydroxamic acid], the Ki [10] was 2.09 µM, the “SF Meprin α: selectivity factor” value [10] was 13 and the “SF Meprin β: selectivity factor” value [10] was 1.3. The remaining activity at 10 µM [1] was 89%, the remaining activity at 200 µM [1] was 46% and the remaining activity at 10 µM [2] was 96%. For the same compound, the remaining activity at 200 µM [2] was 68%, the Ki [3] was 1.62 µM and the Ki [4] was 0.163 µM. The “SF: selectivity factor” value [4] was 10, the viability at 24 h, 30 µM [5] was 94% and the viability at 24 h, 30 µM [6] was 85%. It also gave a remaining activity at 10 µM [7] of 87%, a remaining activity at 200 µM [7] of 76% and a remaining activity at 10 µM [8] of 102%. For the same compound, the remaining activity at 200 µM [8] was 72%, the remaining activity at 10 µM [9] was 92% and the remaining activity at 200 µM [9] was 56%.

With `O=C(Cn1c(-c2ccccc2)nnc1-c1ccccc1)NO` [2 g, 2‐(3,5‐Diphenyl‐1,2,4‐triazol‐4‐yl)ethanehydroxamic acid] the Ki [10] was 4.88 µM, the “SF Meprin α: selectivity factor” value [10] was 74 and the “SF Meprin β: selectivity factor” value [10] was 0.6. It also gave a remaining activity at 10 µM [1] of 95%, a remaining activity at 200 µM [1] of 70% and a remaining activity at 10 µM [2] of 99%. The remaining activity at 200 µM [2] was 54%, the Ki [3] was 8.68 µM and the Ki [4] was 0.066 µM. For the same compound, the “SF: selectivity factor” value [4] was 132, the viability at 24 h, 30 µM [5] was 99% and the viability at 24 h, 30 µM [6] was 94%. For the same compound, the remaining activity at 10 µM [7] was 89%, the remaining activity at 200 µM [7] was 83% and the remaining activity at 10 µM [8] was 93%. It also gave a remaining activity at 200 µM [8] of 76%, a remaining activity at 10 µM [9] of 90% and a remaining activity at 200 µM [9] of 56%.

For `O=C(CCc1c(-c2ccccc2)n[nH]c1-c1ccccc1)NO` [2 f, 3‐(3,5‐Diphenyl‐1H‐pyrazol‐4‐yl)propanehydroxamic acid], the Ki [10] was 2.42 µM, the “SF Meprin α: selectivity factor” value [10] was 32 and the “SF Meprin β: selectivity factor” value [10] was 0.3. The remaining activity at 10 µM [1] was 97%, the remaining activity at 200 µM [1] was 77% and the remaining activity at 10 µM [2] was 93%. It also gave a remaining activity at 200 µM [2] of 65%, a Ki [3] of 8.03 µM and a Ki [4] of 0.076 µM. For the same compound, the “SF: selectivity factor” value [4] was 106, the viability at 24 h, 30 µM [5] was 93% and the viability at 24 h, 30 µM [6] was 93%. For the same compound, the remaining activity at 10 µM [7] was 66%, the remaining activity at 200 µM [7] was 12% and the remaining activity at 10 µM [8] was 93%. For the same compound, the remaining activity at 200 µM [8] was 68%, the remaining activity at 10 µM [9] was 76% and the remaining activity at 200 µM [9] was 27%.
